Measured values as given in patent US10271552B2, “Heterocyclic compounds as pesticides” (Bayer CropScience Aktiengesellschaft, priority 2015, dated 2019).

Columns and labels:
Format in all cases: in vivo
Meloidogyne incognita = Meloidogyne incognita test; conditions: 20 ppm; eggs and larvae, salad seeds in sand; after 14 days
Experimental: Meloidogyne incognita—Test
Solvent: 125.0 parts by weight of acetone
To produce a suitable preparation of active compound, 1 part by weight of active compound is mixed with the stated amount of solvent, and the concentrate is diluted with water to the desired concentration.
Vessels are filled with sand, a solution of the active ingredient, a suspension containing eggs and larvae of the southern root-knot nematode (Meloidogyne incognita) and salad seeds. The salad seeds germinate and the seedlings grow. Galls develop in the roots.
After 14 days the nematicidal activity is determined on the basis of the percentage of gall formation. 100% means no galls were found and 0% means the number of galls found on the roots of the treated plants was equal to that in untreated control plants.

Boophilus microplus = Boophilus microplus injection test; conditions: 20 μg/animal injected; adult engorged female ticks; after 7 days
Experimental: Boophilus microplus—Injection Test
Solvent: dimethyl sulfoxide
To produce a suitable preparation of active compound, 10 mg of active compound are dissolved in 0.5 ml solvent, and the concentrate is diluted with solvent to the desired concentration.
Five adult engorged female ticks (Boophilus microplus) are injected with 1 μl compound solution into the abdomen. The ticks are transferred into replica plates and incubated in a climate chamber.
After 7 days egg deposition of fertile eggs is monitored. Eggs where fertility is not visible are stored in a climate chamber till hatching after about 42 days. An efficacy of 100% means all eggs are infertile; 0% means all eggs are fertile.

Diabrotica balteata = Diabrotica balteata spray test; conditions: 160 μg/well; germinated wheat seeds, larvae; after 7 days
Experimental: Diabrotica Balteata—Spray Test
(§1) Solvent: 78.0 parts by weight of acetone • • 1.5 parts by weight of dimethylformamide
(§2) Emulsifier: alkylarylpolyglycol ether
(§3) To produce a suitable preparation of active compound, 1 part by weight of active compound is mixed with the stated amount of solvent, and the concentrate is diluted with water, containing an emulsifier concentration of 1000 ppm, to the desired concentration. Further test concentrations are prepared by dilution with emulsifier containing water.
Soaked wheat seeds (Triticum aestivum) are placed in a multiple well plate filled with agar and some water and are incubated for 1 day to germinate (5 seeds per well). The germinated wheat seeds are sprayed with a test solution containing the desired concentration of the active ingredient. Afterwards each unit is infected with 10-20 larvae of the banded cucumber beetle (Diabrotica balteata).
After 7 days efficacy in % is determined. 100% means all the seedlings have grown up like in the untreated, uninfected control; 0% means none of the seedlings have grown.

Phaedon cochleariae = Phaedon cochleariae spray test; conditions: foliar, 168 h, Chinese cabbage leaf disks, larvae, after 7 days
Experimental: Phaedon cochleariae—Spray Test
as §1, §2
as §3, with “solvents” for “solvent,”, “and” for “and the concentrate”
Chinese cabbage (Brassica pekinensis) leaf disks are sprayed with a preparation of the active ingredient of the desired concentration. Once dry, the leaf disks are infested with mustard beetle larvae (Phaedon cochleariae).
After 7 days mortality in % is determined. 100% means all beetle larvae have been killed and 0% means none of the beetle larvae have been killed.

Nezara viridula = Nezara viridula spray test (solvent 52.5 acetone / 7 dimethylformamide); conditions: 96 h, barley plants, larvae, after 4 days
Experimental: Nezara viridula—Spray Test
Solvent: 52.5 parts by weight of acetone • 7 parts by weight of dimethylformamide
Emulsifier: alkylaryl polyglycolether
To produce a suitable preparation of active compound, 1 part by weight of active compound is mixed with the stated amount of solvent, and the concentrate is diluted with water, containing an emulsifier concentration of 1000 ppm, to the desired concentration. Ammonium salt and/or penetration enhancer in a dosage of 1000 ppm are added to the desired concentration if necessary.
Barley plants (Hordeum vulgare) infested with larvae of the southern green stink bug (Nezara viridula) are sprayed with a test solution containing the desired concentration of the active ingredient.
After 4 days mortality in % is determined. 100% means all the stink bugs have been killed; 0% means none of the stink bugs have been killed.

Row | SMILES | nematicidal activity (gall formation) (Meloidogyne incognita) [%] | efficacy (seedling growth) (Diabrotica balteata) [%] | also measured
1 | O=C(Nc1nc(-c2c(F)cccc2F)ns1)c1ccccc1Cl [Compound I-1-3] | 90 | – | efficacy (infertile eggs) (Boophilus microplus): 100%
2 | O=C(Nc1nc(-c2c(F)cccc2F)ns1)c1ccccc1I [Compound I-1-8] | – | – | efficacy (infertile eggs) (Boophilus microplus): 100%
3 | O=C(Nc1nc(-c2c(F)cccc2F)ns1)c1ccccc1C(F)F [Compound I-1-9] | 70 | – | efficacy (infertile eggs) (Boophilus microplus): 100%
4 | O=C(Nc1nc(-c2c(F)cccc2F)ns1)c1ncccc1C(F)(F)F [Compound I-1-13] | 90 | – | –
5 | O=C(Nc1nc(-c2c(F)cccc2F)ns1)c1cccnc1C(F)F [Compound I-1-14] | 100 | – | efficacy (infertile eggs) (Boophilus microplus): 100%
6 | O=C(Nc1nc(-c2ccccc2C(F)(F)F)ns1)c1ccccc1Br [Compound I-1-16] | 90 | – | –
7 | O=C(Nc1nc(-c2ccccc2C(F)(F)F)ns1)c1ncccc1C(F)(F)F [Compound I-1-19] | 90 | 100 | –
8 | O=C(Nc1nc(-c2ccccc2Cl)ns1)c1ccccc1Cl [Compound I-1-22] | – | – | efficacy (infertile eggs) (Boophilus microplus): 100%
9 | CCc1ncccc1C(=O)Nc1nc(-c2c(F)cccc2F)ns1 [Compound I-1-36, N-[3-(2,6-Difluorophenyl)-1,2,4-thiadiazol-5-yl]-2-ethylnicotinamide] | 100 | – | mortality at 500 g/ha (Phaedon cochleariae): ≥ 80%
10 | O=C(Nc1nc(-c2c(F)cccc2F)ns1)c1cccnc1CC(F)(F)F [Compound I-1-38] | – | 80 | –
11 | O=C(Nc1nc(-c2c(F)cccc2F)ns1)C1=C(C(F)F)OCCS1 [Compound I-1-39] | 70 | – | –
12 | O=C(Nc1nc(-c2ccccc2Cl)ns1)c1nccnc1C(F)(F)F [Compound I-1-44] | – | 100 | efficacy (infertile eggs) (Boophilus microplus): 100%
13 | CCc1ncccc1C(=O)Nc1nc(-c2ccccc2Cl)ns1 [Compound I-1-48] | 90 | – | –
14 | Cc1ccccc1-c1nsc(NC(=O)c2cccnc2C(F)(F)F)n1 [Compound I-1-53] | – | 80 | –
15 | O=C(Nc1nc(-c2cccc(F)c2C(F)(F)F)ns1)c1cccnc1C(F)(F)F [Compound I-1-61] | – | 80 | –
16 | O=C(Nc1nc(-c2cc(F)ccc2C(F)(F)F)ns1)c1cccnc1C(F)(F)F [Compound I-1-64] | – | 100 | –
17 | O=C(Nc1nc(-c2ccc(C(F)(F)F)cc2C(F)(F)F)ns1)c1cccnc1C(F)(F)F [Compound I-1-66, N-{3-[2,4-Bis(trifluoromethyl)phenyl]-1,2,4-thiadiazol-5-yl}-2-(trifluoromethyl)nicotinamide] | – | – | mortality at 500 g/ha (Nezara viridula): ≥ 90%
18 | N#Cc1ccccc1-c1nsc(NC(=O)c2cccnc2C(F)(F)F)n1 [Compound I-1-67, N-[3-(2-Cyanophenyl)-1,2,4-thiadiazol-5-yl]-2-(trifluoromethyl)nicotinamide] | – | – | mortality at 500 g/ha (Nezara viridula): ≥ 90%
19 | O=C(Nc1nc(-c2ccccc2OC(F)(F)F)ns1)c1ccccc1C(F)(F)F [Compound I-1-70, N-{3-[2-(trifluoromethoxy)phenyl]-1,2,4-thiadiazol-5-yl}-2-(trifluoromethyl)benzamide] | – | 100 | mortality at 500 g/ha (Phaedon cochleariae): ≥ 80%
20 | O=C(Nc1nc(-c2ccccc2F)ns1)c1ccccc1C(F)(F)F [Compound I-1-73] | – | 100 | –
21 | O=C(Nc1nc(-c2c(F)cccc2F)ns1)c1cccc(Cl)c1C(F)(F)F [Compound I-1-77] | – | 80 | –
22 | N#Cc1cccc(C#N)c1-c1nsc(NC(=O)c2cccnc2C(F)(F)F)n1 [Compound I-1-78, N-[3-(2,6-Dicyanophenyl)-1,2,4-thiadiazol-5-yl]-2-(trifluoromethyl)nicotinamide] | – | – | mortality at 500 g/ha (Phaedon cochleariae): ≥ 80%
23 | O=C(Nc1nc(-c2cccnc2Cl)ns1)c1ccccc1C(F)(F)F [Compound I-3-1, N-[3-(2-Chloropyridin-3-yl)-1,2,4-thiadiazol-5-yl]-2-(trifluoromethyl)benzamide] | – | – | mortality at 500 g/ha (Phaedon cochleariae): ≥ 80%; mortality at 500 g/ha (Nezara viridula): ≥ 90%
